Tested on: blood vessels within the dorsal window chamber
Type: in vivo, mice of strain C3H
Excerpt: Male mice of strain C3H (sourced from The Jackson Laboratory, 600 Main Street, Bar Harbor, Me. 04609 USA) weighing between 28-30 gram were surgically implanted with titanium back-pack window chambers in a similar manner to that described for Syrian Golden hamsters as described above. Prior to the surgical procedure, the dorsal surface of the mouse was shaved with electric clippers (Sunbeam Oster 2-Speed, 150 Cadillac Lane, McMinnville, Tenn., 37110) and then the shaved skin covered in a depilatory cream (Nair, Carter Products, New York, N.Y., 10105) for 10 minutes to remove the remaining hair. Then a dorsal skin fold consisting of two layers of skin and muscle tissue was sandwiched between two opposing titanium frames (Campus Research Machine Shop, University of California, San Diego 9500 Gilman Drive, La Jolla, Calif.) with a 14 mm circular opening in each. Layers of skin and muscle fascia were separated from the sub-cutaneous tissue, and removed until a thin monolayer of muscle and one layer of intact skin remained. A coverglass (Type Circle 1, Part #12-545-80 sourced from Fisher Scientific, 2761 Walnut Avenue, Tustin, Calif., 92780) held by an expansion ring in the circular window of one titanium frame was then placed on the exposed tissue to allow direct microscopic visualization of the vasculature. The window in the second opposing titanium frame was left open exposing the intact skin.
Microvascular observations using an intra-vital microscope were not undertaken until at least 2 days post-chamber implantation to mitigate against post-surgical trauma, and to confirm that blood vessels within the chamber were functioning and intact and patent. A chamber was considered suitable for subsequent studies if microscopic examination of the preparation met the following criteria (as applied in Friesenecker et al., 1994):
The intra-vital microscopic studies were undertaken on un-sedated animals held in a Plexiglass tube (manufactured by Miravant Medical Technologies, Inc., 336 Bollay Drive, Santa Barbara, 93117) from which the window chamber sandwich protruded horizontally, allowing visualization of the chamber on the microscope stage. The Plexiglass tube acted to restrain the animals without impeding respiration. The intra-vital microscopy was performed using a Leitz Dialux 22 (West LA Microscope Co., Butler Avenue, Santa Monica, 90025) fitted with a Leitz Wetzlar 20× L20 lens (0.32 numerical aperture), a Leitz Wetzlar 10× Planfluotar lens (0.30 numerical aperture), a Leitz Wetzlar 4× EF lens (0.12 numerical aperture), a Leitz Wetzlar 2.5× P1 lens (0.08 numerical aperture, and an Olympus 20× Wplan water immersion lens (0.4 numerical aperture). The intra-vital microscope system used for these studies was fitted with two trans-illumination light sources and one epi-illumination light source. The two trans-illumination sources were used in the following manner. One trans-illumination light source was used for imaging the tissue within the window chamber, and the other was used as the irradiation source for activating the photosensitizer in the tissue. The imaging source was a […] mercury arc lamp (Type 307-143.004 from Ernst Leitz Wetzlar GmBH, Germany) which was powered by an HBO 100 power supply (LEP Ltd., Scarsdale, N.Y.). The output from this source was filtered using a #H43157 interference filter (Edmund Scientific, 101 East Gloucester Pike, Barrington, N.J., 08007-1380), to produce a beam of 410 nm light. The irradiation source was a Model DD4 Diode Laser (Miravant Medical Technologies 336 Bollay Drive., Santa Barbara, Calif., 93117), which produced 664 nm light.

Q: How did the “Extravasation of FITC-Dextran from larger vessels in field” value (mouse #2, MV6401 0.05 mg/kg i.v., 664 nm, 15 J/cm^2, 50 mW/cm^2, FITC-Dextran 1 day post PhotoPoint therapy) turn out when `C=Cc1c(C)c2[n]3c1=CC1=NC(=Cc4c(C)c5c([n]4[In]3[Cl])C(=C3N=C(C=2)[C@@H](C)[C@@H]3CCC(=O)OC)CC5=O)C(CC)=C1C` [MV6401, indium methyl pyropheophorbide] was run?
A: The value was “Pronounced extravasation”.

Q: And the “Extravasation of FITC-Dextran from many vessels in the treatment field” value (mouse #3, MV6401 0.05 mg/kg i.v., 664 nm, 20 J/cm^2, 50 mW/cm^2, FITC-Dextran 2 days post PhotoPoint therapy)?
A: Its value is “flowing. Pronounced”.

Q: And the Edema in field (mouse, in vivo, iv, 0.05 mg/kg)?
A: Its Edema in field is “Mild edema in field”.

Q: And the “Focal edema and cellular infiltrate” value (mouse, in vivo, iv, 0.05 mg/kg)?
A: The value was “minor areas of focal”.

Q: And the “Focal vascular damage in the treatment field, immediately post FITC-Dextran administration” value (mouse, in vivo, iv, 0.05 mg/kg)?
A: Its value is “Some evidence of focal”.

Q: And the “Tissue damage, subsequent observation” value (mouse, in vivo, iv, 0.05 mg/kg)?
A: The value was “damage. Some evidence”.

Q: And the “Vascular damage, subsequent observation” value (mouse, in vivo, iv, 0.05 mg/kg)?
A: Its value is “Pronounced focal vascular”.
